Columns and labels:
[1] = target: T1, recombinant human CYP11B2 (Homo sapiens, UniProt P19099); experiment: CYP11B2 enzyme assay with enzyme enriched microsomes, aldosterone measured by LC-MS; assay type: biochemical; conditions: microsomes from V79-4 cells; 11-deoxycorticosterone at Km; read-out: hCYP11B2 IC50
T1 construct: made in house; host or cells: V79-4 cells (Chinese hamster lung fibroblasts); enzyme-enriched microsomal fraction of the lysate
T1 sequence (P19099 25-503): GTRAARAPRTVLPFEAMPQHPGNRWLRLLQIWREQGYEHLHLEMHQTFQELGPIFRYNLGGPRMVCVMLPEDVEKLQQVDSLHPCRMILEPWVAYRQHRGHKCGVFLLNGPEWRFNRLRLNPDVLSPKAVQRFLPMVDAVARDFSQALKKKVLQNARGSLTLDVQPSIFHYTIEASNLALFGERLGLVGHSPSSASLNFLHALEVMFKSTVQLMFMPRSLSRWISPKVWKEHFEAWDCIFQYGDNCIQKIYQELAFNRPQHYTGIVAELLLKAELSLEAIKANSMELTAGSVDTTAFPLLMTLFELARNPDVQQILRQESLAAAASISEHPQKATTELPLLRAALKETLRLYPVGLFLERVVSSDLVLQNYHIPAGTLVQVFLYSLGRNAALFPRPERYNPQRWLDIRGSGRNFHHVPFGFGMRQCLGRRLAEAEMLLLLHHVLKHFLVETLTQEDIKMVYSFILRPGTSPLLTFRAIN
Procedure: (§1) V79-4 cells expressing recombinant andrenodoxin and andrenodoxin reductase with either recombinant human CYP11B2 or CYP11B1 were prepared according to methods previously described (LaSala et al 2009 Anal Bioch 394:56-61). An enzyme enriched microsomal fraction was prepared from cellular lysates and subsequently used as the enzyme source for determining inhibitor IC50s. The substrate Km values were experimentally determined for 11-deoxycorticosterone (CYP11B2 substrate) and 11-deoxycortisol (CYP11B1 substrate). Enzyme assays for inhibitor screening employed CYP11B2 and CYP11B1 enzyme enriched microsomes and were run at the Km of the respective substrates. Products of the enzyme reactions, aldosterone for CYP11B2 or cortisol for CYP11B1, were measured by LC-MS. Assays were run under conditions of less than 20% substrate turnover. Inhibitor IC50s were generated by determining the product formation in the absence or presence of inhibitor at various concentrations. In the absence of the test compound, the product formed (Pt) in each data set was defined as 100% activity. In the absence of enzyme, the product formed (Pb) in each data set was defined as 0% activity. The percent activity in the presence of each inhibitor was calculated according to the following equation: % activity=(P−Pb)/(Pt−Pb), where P=the product formed in the presence of the inhibitor. The IC50 value was defined as the inhibitor concentration causing a 50% decrease in activity relative to the no inhibitor control reaction.

[2] = target: T2, recombinant human CYP11B1 (Homo sapiens, UniProt P15538); experiment: CYP11B1 enzyme assay with enzyme enriched microsomes, cortisol measured by LC-MS; assay type: biochemical; conditions: microsomes from V79-4 cells; 11-deoxycortisol at Km; read-out: hCYP11B1 IC50
T2 construct: made in house; host or cells: V79-4 cells (Chinese hamster lung fibroblasts); enzyme-enriched microsomal fraction of the lysate
T2 sequence (P15538 25-503): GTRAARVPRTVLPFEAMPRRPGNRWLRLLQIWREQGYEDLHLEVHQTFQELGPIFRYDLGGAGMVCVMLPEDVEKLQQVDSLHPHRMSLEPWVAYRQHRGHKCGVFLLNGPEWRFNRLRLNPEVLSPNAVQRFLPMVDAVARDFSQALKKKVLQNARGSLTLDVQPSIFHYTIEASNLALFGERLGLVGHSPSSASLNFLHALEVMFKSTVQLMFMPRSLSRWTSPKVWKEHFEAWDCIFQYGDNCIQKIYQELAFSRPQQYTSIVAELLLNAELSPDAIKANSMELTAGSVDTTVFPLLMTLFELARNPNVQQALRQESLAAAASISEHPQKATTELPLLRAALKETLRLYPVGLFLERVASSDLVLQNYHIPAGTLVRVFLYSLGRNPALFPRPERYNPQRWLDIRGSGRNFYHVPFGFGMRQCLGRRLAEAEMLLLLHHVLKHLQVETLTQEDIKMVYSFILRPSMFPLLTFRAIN
Procedure: as §1

| IC50 [1] [nM] | IC50 [2] [nM] | Structure (SMILES) |
| --- | --- | --- |
| 1 to 100 | 1000 to 10000 | Fc1cc2ncn(-c3nc4ccc(Cl)nc4n3C3CC3)c2cc1F [Example 29, 5-chloro-3-cyclopropyl-2-(5,6-difluoro-1H-benzo[d]imidazol-1-yl)-3H-imidazo[4,5-b] pyridine] |
| 100 to 1000 | > 10000 | N#Cc1ccc2ncn(-c3nc4ccc(F)cc4n3C3CC3)c2c1 [Example 7, 1′-cyclopropyl-6′-fluoro-1′H-[1,2′-bibenzo[d]imidazole]-6-carbonitrile] |
| 1 to 100 | 1000 to 10000 | Fc1cc2nc(-n3cnc4ccc(OC(F)F)cc43)n(C3CC3)c2cc1F [Example 53, 1′-cyclopropyl-6-(difluoromethoxy)-5′,6′-difluoro-1′H-1,2′-bibenzo[d]imidazole] |
| 1 to 100 | 100 to 1000 | COc1ccc2ncn(-c3nc4ccc(F)cc4n3C3CC3)c2c1 [Example 13, 1′-cyclopropyl-6′-fluoro-6-methoxy-1′H-1,2′-bibenzo[d]imidazole] |
| 1 to 100 | 1000 to 10000 | Fc1ccc2nc(-n3cnc4ccccc43)n(C3CC3)c2c1F [Example 2, 1′-cyclopropyl-6′,7′-difluoro-1′H-1,2′-bibenzo[d]imidazole] |
| 1 to 100 | 100 to 1000 | Fc1cc2nc(-n3cnc4cc(OC(F)F)ccc43)n(C3CC3)c2cc1F [Example 52, 1′-cyclopropyl-5-(difluoromethoxy)-5′,6′-difluoro-1′H-1,2′-bibenzo[d]imidazole] |
| 1 to 100 | > 10000 | CS(=O)(=O)Nc1ccc2c(c1)ncn2-c1nc2ccc(F)c(F)c2n1C1CC1 [Example 31, N-(1′-cyclopropyl-6′,7′-difluoro-1′H-[1,2′-bibenzo[d]imidazol]-5-yl) methanesulfonamide] |
| 1000 to 10000 | > 10000 | CS(=O)(=O)Nc1ccc2ncn(-c3nc4ccc(C#N)cc4n3C3CC3)c2c1 [Example 48, N-(6′-cyano-1′-cyclopropyl-1′H-[1,2′-bibenzo[d]imidazol]-6-yl) methanesulfonamide] |
| 1000 to 10000 | > 10000 | Fc1ccc2nc(-n3cnc4c(F)c(F)ccc43)n(C3CC3)c2c1 [Example 3, 1′-cyclopropyl-4,5,6′-trifluoro-1′H-1,2′-bibenzo[d]imidazole] |
| 1 to 100 | > 10000 | N#Cc1ccc2nc(-n3cnc4ccncc43)n(C3CC3)c2c1 [Example 42, 1-cyclopropyl-2-(3H-imidazo[4,5-c]pyridin-3-yl)-1H-benzo[d]imidazole-6-carbonitrile] |
| 1000 to 10000 | > 10000 | CS(=O)(=O)N(c1ccc2c(c1)ncn2-c1nc2ccc(F)c(F)c2n1C1CC1)S(C)(=O)=O [Example 30, N-(1′-cyclopropyl-6′,7′-difluoro-1′H-[1,2′-bibenzo[d]imidazol]-5-yl)-N-(methylsulfonyl) methanesulfonamide] |
| 1 to 100 | 1000 to 10000 | N#Cc1ccc2c(c1)ncn2-c1nc2ccc(F)cc2n1C1CC1 [Example 6, 1′-cyclopropyl-6′-fluoro-1′H-[1,2′-bibenzo[d]imidazole]-5-carbonitrile] |
| 1 to 100 | 1000 to 10000 | Fc1cc2ncn(-c3nc4cc(F)c(F)cc4n3C3CC3)c2cc1F [Example 17, 1′-cyclopropyl-5,5′,6,6′-tetrafluoro-1′H-1,2′-bibenzo[d]imidazole] |
| 1 to 100 | 1000 to 10000 | N#Cc1ccc2nc(-n3cnc4ccc(OC(F)F)cc43)n(C3CC3)c2c1 [Example 50, 1′-cyclopropyl-6-(difluoromethoxy)-1′H-[1,2′-bibenzo[d]imidazole]-6′-carbonitrile] |
| 1 to 100 | 1000 to 10000 | Fc1cc2ncn(-c3nc4ccc(Cl)cc4n3C3CC3)c2cc1F [Example 26, 6′-chloro-1′-cyclopropyl-5,6-difluoro-1′H-1,2′-bibenzo[d]imidazole] |
| 1000 to 10000 | > 10000 | O=C(O)c1ccc2c(c1)ncn2-c1nc2cc(F)c(F)cc2n1C1CC1 [Example 44, 1′-cyclopropyl-5′,6′-difluoro-1′H-[1,2′-bibenzo[d]imidazole]-5-carboxylic acid] |
| 1 to 100 | 100 to 1000 | Fc1ccc2c(c1)ncn2-c1nc2ccc(F)cc2n1C1CC1 [Example 18, 1′-cyclopropyl-5,6′-difluoro-1′H-1,2′-bibenzo[d]imidazole] |
| 1 to 100 | 100 to 1000 | Fc1ccc2nc(-n3cnc4ccccc43)n(C3CC3)c2c1 [Example 1, 1′-cyclopropyl-6′-fluoro-1′H-1,2′-bibenzo[d]imidazole] |
| 1 to 100 | 100 to 1000 | Fc1cc2nc(-n3cnc4ccccc43)n(C3CC3)c2cc1F [Example 16, 1′-cyclopropyl-5′,6′-difluoro-1′H-1,2′-bibenzo[d]imidazole] |
| 1 to 100 | 1000 to 10000 | Fc1ccc2nc(-n3cnc4cc(F)c(F)cc43)n(C3CC3)c2c1 [Example 4, 1′-cyclopropyl-5,6,6′-trifluoro-1′H-1,2′-bibenzo[d]imidazole] |
